Measurements reported in patent US11492644B2, “Genetically induced nephron progenitors” (MURDOCH CHILDRENS RESEARCH INSTITUTE, priority 2017, dated 2022).

System: Cited1
Experiment: In situ reprogramming by renal pelvis hydrodynamic injection
Format: in vivo, mouse
Conditions: Cited1-CreERT2 BAC transgenic mice, 72 h post-injection
Procedure: Renal pelvis hydrodynamic injection was performed as previously described (Woodard et al Sci Rep 2017, Woodard et al J. Vis. Exp. 2017) on 15 week-old Cited1-CreER^T2 BAC transgenic mice (Boyle et al Dev. Biol. 2008). Mice were assayed for presence of the GFP transgene at weaning (Transnetyx, Cordova, Tenn.). A solution of 50 ug of pT-mSES in 100 uL of buffer QR (Minis Bio, Madison, Wis.) was injected quickly into the renal pelvis of mice anesthetized with ketamine/xylazine. Mice were treated every 8-12 h with buprenorphine for pain management for 48 h and sacrificed at 72 h post-injection.
There were eGFP-positive cells with a similar morphology present in both QR-injected and pT-mSES-injected transgenic animals (FIG. 16, panels a and b). However, only in the pT-mSES-injected transgenic animals were there cells appearing to be derived from tubule-like structures that were eGFP-positive (FIG. 16c). In contrast, in wild-type, non-transgenic mice receiving either QR or pT-mSES, no positive eGFP cells could be found. Therefore, cellular reprogramming to an induced nephron progenitor state may be possible in vivo following gene delivery of Snai2, Six1 and Eya1.

Substance: pT-mSES: piggyBac transposon plasmid (SEQ ID NO:12) expressing mouse Six1, Snai2 and Eya1 from the elongation factor 1 alpha promoter
- eGFP expression from the Cited1 promoter: induced eGFP expression indicative of Cited1 positivity
